Drawing on patent US8367829B2, “Bi-functional pyrazolopyridine compounds” (Gilead Sciences, Inc., priority 2010, dated 2013), this text covers EC50 and IC50 for 11 compounds.

Molecules are shown by their SMILES. pEC50, pIC50: −log10 of the molar value.

For experiment [1], the system named is LPS-induced TNF-α release from human peripheral blood mononuclear cells (PBMC). The experiment is described as follows: Inhibition of LPS-induced TNF-α release from human PBMC. Format: cell-based. Particulars: LPS 0.4 ng/mL, 6 h, presence or absence of ICI-118551 not given. An excerpt: Inhibition of Lipopolysaccharide (LPS)-Induced Tumour Necrosis Factor Alpha (TNF-α) Release from Human Peripheral Blood Mononuclear Cells (PBMC)
Human whole blood was drawn from donors and cell purification initiated within two hours. Peripheral blood mononuclear cells (PBMC) were purified using a standard Ficoll gradient purification technique and aliquoted at a concentration of 100,000 cells/well in 96 well plates. Beta-2 adrenoreceptor agonists are also anti-inflammatory for some immune cells expressing the receptor and in this assay they can inhibit tumor necrosis factor-alpha (TNF-α) production. Therefore PBMC were pre-incubated for 30 min in the presence of the beta-2 adrenoreceptor antagonist ICI-118551 (3-(isopropylamino)-1-[(7-methyl-4-indanyl)oxy]butan-2-ol) (10 μM) to determine the PDE4 directed activity of test compounds, and in the absence of ICI-118551 for the combined PDE4 and beta-2 receptor directed activity. Test compounds were dissolved in DMSO and diluted in buffer (final DMSO concentration of 0.1% v/v) and were then added to the cell suspensions and pre-incubated for a further 1 h at 37° C. LPS solution was then added (0.4 ng/mL) and the cells incubated for a further 6 h. At the end of the incubation period the cell supernatants were collected and TNF-α was measured using a Procarta Cytokine Assay Kit (Affymetrix, Santa Clara, Calif.) according to the manufacturers' instructions. Data were analyzed using MiraiBio Masterplex QT v4.0 software (MasterPlex Version 1.0.1.18 Copyright 2008, Hitachi Software Engineering Co., Ltd) and used to extrapolate Mean Fluorescence Intensity (MFI) into concentrations of TNF-α and mean values from replicate wells were determined. Inhibition curves were plotted using a nonlinear curve fit employing a single-site binding model to determine the IC50 value for each test compound in the presence or absence of ICI-118551 using GraphPad Prism 5 for Windows, version 5.02 (GraphPad Software, San Diego Calif.).
EC50 determinations for the compounds presented above are seen in the fourth column of Table 1 (PBMC TNF EC50).

For experiment [2], the target named is T1, Human recombinant PDE4B2 (Homo sapiens, UniProt Q07343).
T1 construct: purchased BPS Bioscience
As to the kind of experiment: Inhibition of PDE4B2 enzyme activity (PDE Glo Assay). The experiment is classed as biochemical. The following applies: human recombinant PDE4B2, 50 nM cAMP; read-out: PDE4 IC50. The method, then:
Inhibition of PDE4B4 Enzyme Activity
The inhibitory activity of test compounds were determined using the PDE Glo Assay (Promega, V1361). The PDE-Glo Reaction Buffer was prepared (1 mL 5× buffer+4 mL water) and 150 nM solution of test compound dissolved in the Reaction Buffer, followed by 1:3 serial dilutions into Reaction Buffer. […] Human recombinant PDE4B2 (BPS Bioscience) was added to test compound in Reaction Buffer at a concentration of 0.12 nM per reaction. The enzyme and test compound were pre-incubated together at rt for 10 min. 50 nM of the enzyme substrate cAMP was then added to initiate the enzyme reaction, with the reaction terminated after one hour. Termination Buffer (1 mL 5× termination buffer+3.9 mL water+100 μL of 100 mM IBMX (ICN Chemicals, in DMSO)), was added to each reaction well to terminate the reaction. Detection Buffer (1 mL 5×PDE-Glo Detection buffer+3.96 mL water+40 μL PKA (supplied in kit)) was added to the cAMP-enzyme-test compound mix and this secondary reaction proceeded for 20 minutes at rt. An equal volume of Kinase Glo Reagent was then added to the reaction mixture and after 10 min luminescence was measured using a luminometer (EnVision, 0.1 sec read for luminescence). Luminescence values were […] related to levels of cAMP in the reaction mixture. Data were plotted as relative light units (RLU) versus test compound concentration and the IC50 determined using GraphPad Prism 5.0, using a nonlinear curve fit in a single-site binding model.
IC50 determinations for the compounds presented above are seen in the first column of Table 1 (PDE4 IC50).

Experiment [3] addresses T2, human recombinant beta-2 adrenoreceptors (Homo sapiens, UniProt P07550).
T2 construct: expressed in transfected cells; host or cells: CHO cells
As to the kind of experiment: Beta-2 adrenoceptor binding assay, displacement of [3H](−)CGP-12177. The following applies: CHO cells expressing human beta-2 adrenoreceptors, [3H](−)CGP-12177 0.3 nM, 120 min. The method, then: Beta-2 Adrenoceptor Binding Assay
Test compounds were incubated for 120 min with Chinese hamster oocyte (CHO) cells expressing the human recombinant beta-2 adrenoreceptors. Binding of test compounds to the beta-2 adrenoreceptors was determined by measuring the displacement of the radiolabeled ligand [^3H](−)CGP-12177 (0.3 nM) from the receptor measured by a scintillation counting. Concentration response curves were generated for test compounds and the IC50 (molar concentration of the compound which produced 50% inhibition for the maximal response for that compound) was determined. These assays were performed using a protocol based on the original description of the assay by Joseph et al., (2004) Naun.-Sch. Arch. Pharm.; 369:525-532.
IC50 determinations for the compounds presented above are seen in the second column of Table 1 (Beta 2 IC50).
In general terms: In a radioligand displacement assay an active substance lowers the binding of a labelled ligand.

The target of experiment [4] is T2, human recombinant beta-2 adrenoreceptors. As to the kind of experiment: Functional agonism of human recombinant beta-2 adrenoreceptors expressed in CHO cells (cAMP, HTRF). The experiment is classed as cell-based. Particulars: cAMP elevation, 30 min. The method, then: Functional Agonism of Human Recombinant Beta-2 Adrenoreceptors Expressed in Chinese Hamster Oocytes (CHO)
Test compounds were incubated for 30 min with CHO cells expressing the human recombinant beta-2 adrenoreceptors. Agonism of the receptor was measured by the elevation of intracellular cyclic-AMP over control levels detected using a homogeneous time resolved fluorescence (HTRF) format. Compounds were determined to be “full” or “partial” agonists based on the maximum level of cAMP accumulated compared to the control compound isoproterenol which is a full agonist in this assay system. Concentration response curves were generated for test compounds and the EC50 (molar concentration of the agonist which produced 50% of the maximal response for that compound) was determined. These assays were performed using a protocol based on the original description of the assay by Baker, J. G. (2005) Brit. J. Pharmacol.; 144:317-322.
EC50 determinations for the compounds presented above are seen in the third column of Table 1 (Beta 2 EC50).
A general note: Time-resolved FRET reads energy transfer from a long-lived donor to a nearby acceptor.

T1 sequence (Q07343 1-564 isoform Q07343-2): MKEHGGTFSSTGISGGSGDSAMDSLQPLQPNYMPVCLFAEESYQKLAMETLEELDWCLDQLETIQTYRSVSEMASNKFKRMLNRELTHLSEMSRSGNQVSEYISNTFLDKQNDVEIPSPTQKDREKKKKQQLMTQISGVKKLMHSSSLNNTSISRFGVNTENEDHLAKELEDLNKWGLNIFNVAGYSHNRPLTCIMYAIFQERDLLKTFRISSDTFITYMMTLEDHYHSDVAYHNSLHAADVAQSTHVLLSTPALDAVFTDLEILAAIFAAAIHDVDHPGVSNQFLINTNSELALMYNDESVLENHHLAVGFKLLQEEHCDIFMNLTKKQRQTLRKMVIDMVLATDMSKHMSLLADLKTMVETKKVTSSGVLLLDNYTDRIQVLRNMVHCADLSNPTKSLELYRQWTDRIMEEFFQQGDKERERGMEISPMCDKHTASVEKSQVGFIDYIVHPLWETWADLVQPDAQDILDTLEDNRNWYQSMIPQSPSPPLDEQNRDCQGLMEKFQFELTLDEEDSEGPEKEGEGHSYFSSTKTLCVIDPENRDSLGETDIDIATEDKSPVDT
T2 sequence (P07550 whole entry): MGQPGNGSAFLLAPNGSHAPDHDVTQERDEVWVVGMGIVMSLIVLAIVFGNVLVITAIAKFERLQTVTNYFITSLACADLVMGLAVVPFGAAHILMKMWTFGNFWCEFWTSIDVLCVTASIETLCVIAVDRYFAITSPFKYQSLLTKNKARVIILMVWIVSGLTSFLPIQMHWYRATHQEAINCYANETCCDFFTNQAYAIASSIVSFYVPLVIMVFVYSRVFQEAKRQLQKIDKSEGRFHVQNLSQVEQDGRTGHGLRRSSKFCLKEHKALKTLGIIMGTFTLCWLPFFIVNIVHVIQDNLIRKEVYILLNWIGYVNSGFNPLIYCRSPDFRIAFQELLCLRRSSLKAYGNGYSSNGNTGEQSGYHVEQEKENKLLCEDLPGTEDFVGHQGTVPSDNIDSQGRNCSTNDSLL

As for `CCc1nc2c(cnn2CC)c(NC2CCOCC2)c1CNC(=O)c1cccc(CC(C)NC[C@H](O)c2ccc(O)c3[nH]c(=O)ccc23)c1` (stereo partly drawn) [Example 1, N-[[1,6-Diethyl-4-[(tetrahydro-2H-pyran-4-yl)amino]-1H-pyrazolo[3,4-b]pyridin-5-yl]methyl]-3-[2-[[(R)-2-hydroxy-2-(8-hydroxy-2-oxo-1,2-dihydroquinolin-5-yl)ethyl]amino]propyl]benzamide], the pEC50 in experiment [1] and in experiment [4] was over 7.00 in each case. The pIC50 in experiment [2] and in experiment [3] was over 7.00 each time.
As for `CCc1nc2c(cnn2CC)c(NC2CCOCC2)c1CNC(=O)c1cccc(CC(C)NC[C@H](O)c2ccc(O)c(CO)c2)c1` (stereo partly drawn) [Example 2, N-[[1,6-Diethyl-4-[(tetrahydro-2H-pyran-4-yl)amino]-1H-pyrazolo[3,4-b]pyridin-5-yl]methyl]-3-[2-[[(R)-2-hydroxy-2-[4-hydroxy-3-(hydroxymethyl)phenyl]ethyl]amino]propyl]benzamide], the pEC50 in experiment [1] and in experiment [4] was over 7.00 throughout. The pIC50 in experiment [2] was over 7.00; in experiment [3] it was under 6.52.
As for `CCc1nc2c(cnn2CC)c(NC2CCOCC2)c1CNC(=O)c1cccc(CC(C)(C)NC[C@H](O)c2ccc(O)c(CO)c2)c1` [Example 3, (R)—N-[[1,6-Diethyl-4-[(tetrahydro-2H-pyran-4-yl)amino]-1H-pyrazolo[3,4-b]pyridin-5-yl]methyl]-3-[2-[[2-hydroxy-2-[4-hydroxy-3-(hydroxymethyl)phenyl]ethyl]amino]-2-methylpropyl]benzamide], the pEC50 in experiment [1] was over 7.00; in experiment [4], over 6.52. Also, the pIC50 in experiment [2] is over 7.00; in experiment [3], over 6.52.
Take `CCc1nc2c(cnn2CC)c(NC2CCOCC2)c1CNC(=O)c1cccc(CC(C)(C)NC[C@H](O)c2ccc(O)c3[nH]c(=O)ccc23)c1` [Example 4, (R)—N-[[1,6-Diethyl-4-[(tetrahydro-2H-pyran-4-yl)amino]-1H-pyrazolo[3,4-b]pyridin-5-yl]methyl]-3-[2-[[2-hydroxy-2-(8-hydroxy-2-oxo-1,2-dihydroquinolin-5-yl)ethyl]-amino]-2-methylpropyl]benzamide]: the pEC50 in experiment [1] and in experiment [4] was over 7.00 in each case. Besides, the pIC50 in experiment [2] and in experiment [3] was over 7.00 each time.
As to `CCc1nc2c(cnn2CC)c(NC2CCOCC2)c1CNC(=O)c1cccc(CNC[C@H](O)c2ccc(O)c3[nH]c(=O)ccc23)c1` [Example 5, (R)—N-[[1,6-Diethyl-4-[(tetrahydro-2H-pyran-4-yl)amino]-1H-pyrazolo[3,4-b]pyridin-5-yl]methyl]-3-[[[2-hydroxy-2-(8-hydroxy-2-oxo-1,2-dihydroquinolin-5-yl)ethyl]amino]methyl]benzamide], the pEC50 in experiment [1] and in experiment [4] was over 7.00 in each case. Also, the values for the pIC50 in experiment [2] and in experiment [3] were over 7.00 and over 6.52, respectively.
Take `CCc1nc2c(cnn2CC)c(NC2CCOCC2)c1CNC(=O)c1ccc(CNC[C@H](O)c2ccc(O)c3[nH]c(=O)ccc23)cc1` [Example 6, (R)—N-[[1,6-diethyl-4-[(tetrahydro-2H-pyran-4-yl)amino]-1H-pyrazolo[3,4-b]pyridin-5-yl]methyl]-4-[[[2-hydroxy-2-(8-hydroxy-2-oxo-1,2-dihydroquinolin-5-yl]ethyl]amino]methyl]benzamide]: the pEC50 in experiment [1] and in experiment [4] was over 7.00 each time. The pIC50 in experiment [2] was over 7.00; in experiment [3], under 6.52.
In the case of `CCc1nc2c(cnn2CC)c(NC2CCOCC2)c1CNC(=O)c1cccc(CNC[C@H](O)c2ccc(O)c(CO)c2)c1` [Example 7, (R)—N-[[1,6-Diethyl-4-[(tetrahydro-2H-pyran-4-yl)amino]-1H-pyrazolo[3,4-b]pyridin-5-yl]methyl]-3-[[[2-hydroxy-2-[4-hydroxy-3-(hydroxymethyl)phenyl]ethyl]amino]methyl]benzamide], the pEC50 in experiment [1] and in experiment [4] was under 6.52 throughout. The figures for the pIC50 in experiment [2] and in experiment [3] were over 7.00 and under 6.52, respectively.
With `CCc1nc2c(cnn2CC)c(NC2CCOCC2)c1CNC(=O)c1ccc(CNC[C@H](O)c2ccc(O)c(CO)c2)cc1` [Example 8, (R)—N-[[1,6-diethyl-4-[(tetrahydro-2H-pyran-4-yl)amino]-1H-pyrazolo[3,4-b]pyridin-5-yl]methyl]-4-[[[2-hydroxy-2-[4-hydroxy-3-(hydroxymethyl)phenyl]ethyl]amino]methyl]benzamide], the pEC50 in experiment [1] is over 6.52; in experiment [4] it was under 6.52. Besides, the pIC50 is over 7.00 in experiment [2] and under 6.52 in experiment [3].
For `CCc1nc2c(cnn2CC)c(NC2CCOCC2)c1CNc1c(Nc2ccc(CCCCCNC[C@H](O)c3ccc(O)c4[nH]c(=O)ccc34)cc2)c(=O)c1=O` [Example 13, (R)-3-(((1,6-diethyl-4-((tetrahydro-2H-pyran-4-yl)amino)-1H-pyrazolo[3,4-b]pyridin-5-yl)methyl)amino)-4-((4-(5-((2-hydroxy-2-(8-hydroxy-2-oxo-1,2-dihydroquinolin-5-yl)ethyl)amino)pentyl)phenyl)amino)cyclobut-3-ene-1,2-dione], the negative logarithm of the EC50 (pEC50) in experiment [1] and in experiment [4] was over 7.00 in each case. The pIC50 in experiment [3] was over 7.00.
For `CCc1nc2c(cnn2CC)c(NC2CCOCC2)c1CNC(=O)Nc1ccc(CCCCOCCCCCCNC[C@H](O)c2ccc(O)c3[nH]c(=O)ccc23)cc1` [Example 14, (R)-1-((1,6-diethyl-4-((tetrahydro-2H-pyran-4-yl)amino)-1H-pyrazolo[3,4-b]pyridin-5-yl)methyl)-3-(4-(4-((6-((2-hydroxy-2-(8-hydroxy-2-oxo-1,2-dihydroquinolin-5-yl)ethyl)amino)hexyl)oxy)butyl)phenyl)urea], the pEC50 in experiment [1] and in experiment [4] was over 7.00 each time. The pIC50 in experiment [3] is over 7.00.
Turning to `CCc1nc2c(cnn2CC)c(NC2CCOCC2)c1CNC(=O)Nc1ccc(C#CCCCNC[C@H](O)c2ccc(O)c3c2OCC(=O)N3)cc1` [Example 15], the pEC50 in experiment [1] and in experiment [4] was over 7.00 throughout. Moreover, the pIC50 in experiment [3] was over 7.00.

As a reminder, the pEC50 is −log10 of the EC50, conventionally taken in molar units. The pIC50 is the IC50 on a negative log10 scale, so that one unit is a factor of ten.
